Columns and labels:
[1] = molecular target: T1, Cysteinyl leukotriene receptor 1 (Homo sapiens, UniProt Q9Y271); experiment: Antagonist activity at human CysLT1 receptor expressed in CHO cells assessed as inhibition of LTD4-inudced intracellular calcium influx preincubated for 30 mins before LTD4 addition by Fura2-AM assay; format: functional, cell-based
T1 sequence (Q9Y271 whole entry): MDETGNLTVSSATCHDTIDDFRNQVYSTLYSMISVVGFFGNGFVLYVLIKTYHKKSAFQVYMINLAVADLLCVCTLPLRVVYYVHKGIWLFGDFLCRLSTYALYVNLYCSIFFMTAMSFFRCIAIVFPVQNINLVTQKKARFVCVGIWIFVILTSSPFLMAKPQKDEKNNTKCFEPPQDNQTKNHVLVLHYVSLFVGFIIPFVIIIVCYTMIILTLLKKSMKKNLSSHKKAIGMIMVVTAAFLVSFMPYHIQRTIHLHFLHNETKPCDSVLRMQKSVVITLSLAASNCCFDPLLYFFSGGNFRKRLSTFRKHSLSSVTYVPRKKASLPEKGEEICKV

[2] = molecular target: T2, Cysteinyl leukotriene receptor 2 (Homo sapiens, UniProt Q9NS75); experiment: Antagonist activity at human CysLT2 receptor expressed in HEK293 cells assessed as inhibition of LTD4-inudced intracellular calcium influx preincubated for 30 mins before LTD4 addition by Fura2-AM assay; format: functional, cell-based
T2 sequence (Q9NS75 whole entry): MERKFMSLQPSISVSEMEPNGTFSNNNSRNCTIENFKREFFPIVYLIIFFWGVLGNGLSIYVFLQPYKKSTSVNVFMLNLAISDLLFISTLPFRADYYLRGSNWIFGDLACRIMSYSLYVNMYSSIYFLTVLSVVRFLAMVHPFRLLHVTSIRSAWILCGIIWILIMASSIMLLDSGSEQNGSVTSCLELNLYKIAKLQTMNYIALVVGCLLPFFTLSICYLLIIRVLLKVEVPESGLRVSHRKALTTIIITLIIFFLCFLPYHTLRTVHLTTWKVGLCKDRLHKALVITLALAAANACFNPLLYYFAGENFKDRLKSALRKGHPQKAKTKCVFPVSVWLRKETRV

[3] = Apparent permeability across apical to basolateral or basolateral to apical side in human Caco2 cells at 1 uM after 2 hrs by LC/MS/MS analysis; format: ADME, cell-based; settings: Caco-2
[4] = Apparent permeability of the compound at pH 6.2 by PAMPA; format: physicochemical
[5] = Apparent permeability of the compound at pH 7.4 by PAMPA; format: physicochemical
[6] = Cmax in rat at 10 mg/kg, po; format: ADME, organism-based; set-up: dose 10 mg/kg, route oral; settings: in vivo
[7] = Half life in rat at 10 mg/kg, po; format: ADME, organism-based; set-up: dose 10 mg/kg, route oral; settings: in vivo
[8] = AUC in rat at 10 mg/kg, po; format: ADME, organism-based; set-up: dose 10 mg/kg, route oral; settings: plasma
[9] = Oral bioavailability in rat at 10 mg/kg; format: ADME, organism-based; settings: in vivo
[10] = Clearance in rat at 1 mg/kg, iv; format: ADME, organism-based; set-up: dose 1 mg/kg, route intravenous; settings: in vivo
[11] = Half life in rat at 1 mg/kg, iv; format: ADME, organism-based; set-up: dose 1 mg/kg, route intravenous; settings: in vivo
[12] = AUCinf in rat at 1 mg/kg, iv; format: ADME, organism-based; set-up: dose 1 mg/kg, route intravenous, time infinity; settings: plasma
[13] = Volume of distribution at steady state in rat at 1 mg/kg, iv; format: ADME, organism-based; set-up: dose 1 mg/kg, route intravenous; settings: in vivo, read-out: Vdss
[14] = system: Cavia porcellus; experiment: In vivo inhibition of CysLT1 receptor in po dosed guinea pig assessed as reduction in LTD4-induced bronchoconstriction; format: functional, organism-based
[15] = system: Cavia porcellus; experiment: In vivo inhibition of CysLT1 receptor in guinea pig assessed as reduction in LTD4-induced bronchoconstriction at 3 mg/kg, po relative to vehicle treated control; format: functional
[16] = Cmax in rat at 30 mg/kg, po; format: ADME, organism-based; set-up: dose 30 mg/kg, route oral; settings: in vivo
[17] = Half life in rat at 30 mg/kg, po; format: ADME, organism-based; set-up: dose 30 mg/kg, route oral; settings: in vivo
[18] = AUC in rat at 30 mg/kg, po; format: ADME, organism-based; set-up: dose 30 mg/kg, route oral; settings: plasma
[19] = Oral bioavailability in rat at 30 mg/kg; format: ADME, organism-based; settings: in vivo

SMILES	IC50 [1]	IC50 [2]	Papp at 2 h, 1 µM [3]	Papp [4]	Papp [5]	Cmax [6]	half-life [7]	AUC [8]	bioavailability [9]	clearance [10]	half-life [11]	AUC(0-inf) [12]	Vd [13]	Cmax [16]	half-life [17]	AUC [18]	bioavailability [19]	inhibition [14]	inhibition in vivo at 3 mg/kg [15]
O=C(O)CCCn1cc(CC(=O)O)c2c(/C=C/c3ccc(OCCCCOc4ccccc4)cc3)cccc21						33000 ng/mL	4.7 h	324000 ng·h/mL	100%	0.65 mL/min/kg	7.1 h	28000 ng·h/mL	0.208 L/kg					Dose-dependent effect	45%
O=C(O)CCCN1CC(c2nnn[nH]2)Oc2c(/C=C/c3ccc(OCCCCc4ccccc4)cc3)cccc21 (stereo unspecified)	0.59 nM	3.4 nM	0.16 ×10⁻⁶ cm/s																
O=C(O)CCCN1CC(c2nnn[nH]2)Oc2c(CCc3ccc(OCCCCc4ccccc4)cc3)cccc21 (stereo unspecified)	35 nM	15 nM	0.52 ×10⁻⁶ cm/s			400 ng/mL	2.9 h	1800 ng·h/mL	15%	15 mL/min/kg	3.8 h	1200 ng·h/mL	0.999 L/kg						
O=C(O)CCCN1CC(C(=O)O)Oc2c(/C=C/c3ccc(OCCCCOc4ccccc4)cc3)cccc21 (stereo unspecified)	24 nM	0.31 nM	7.8 ×10⁻⁶ cm/s	7.8 ×10⁻⁶ cm/s	< 0.1 ×10⁻⁶ cm/s														
O=C(O)CCCN1CC(C(=O)O)Oc2c(/C=C/c3ccc(OCCCCc4ccccc4)cc3)cccc21 (stereo unspecified)	70 nM	5.7 nM	1.3 ×10⁻⁶ cm/s	1.1 ×10⁻⁶ cm/s	0.1 ×10⁻⁶ cm/s					0.77 mL/min/kg	5.6 h	24000 ng·h/mL	0.365 L/kg	21000 ng/mL	3.6 h	203000 ng·h/mL	29%		
O=C(O)CCCN1CC(C(=O)O)Oc2c(CCc3ccc(OCCCCc4ccccc4)cc3)cccc21 (stereo unspecified)	82 nM	16 nM	2.8 ×10⁻⁶ cm/s							4.8 mL/min/kg	6 h	3700 ng·h/mL	1.46 L/kg	12000 ng/mL	2.5 h	88000 ng·h/mL	79%		
O=C(O)CCCN1CCOc2c(NC(=O)c3ccc(OCCCCc4ccccc4)cc3)cccc21	1900 nM	4300 nM	0.17 ×10⁻⁶ cm/s																
O=C(O)CCCN1CC(C(=O)O)Oc2c(OCc3ccc(OCCCCc4ccccc4)cc3)cccc21 (stereo unspecified)	58 nM		0.74 ×10⁻⁶ cm/s							2.2 mL/min/kg	6 h	7900 ng·h/mL	0.18 L/kg	5600 ng/mL	7.4 h	48000 ng·h/mL	20%		
O=C(O)CCCN1CC(C(=O)O)Oc2c(NC(=O)c3ccc(OCCCCc4ccccc4)cc3)cccc21 (stereo unspecified)			0.18 ×10⁻⁶ cm/s									3500 ng·h/mL	0.104 L/kg	210 ng/mL	3.2 h				
O=C(O)CCCN1CC(C(=O)NS(=O)(=O)c2ccccc2)Oc2c(NC(=O)c3ccc(OCCCCc4ccccc4)cc3)cccc21 (stereo unspecified)	70 nM	5.7 nM	0.06 ×10⁻⁶ cm/s																

Continued by falling IC50 [1], values first:

IC50 [1]	IC50 [2]	Papp at 2 h, 1 µM [3]	Papp [4]	Papp [5]	Cmax [6]	half-life [7]	AUC [8]	bioavailability [9]	clearance [10]	half-life [11]	AUC(0-inf) [12]	Vd [13]	Cmax [16]	half-life [17]	AUC [18]	bioavailability [19]	SMILES	inhibition [14]	inhibition in vivo at 3 mg/kg [15]
740 nM	410 nM	0.17 ×10⁻⁶ cm/s															O=C(O)CCCN1CC(CO)Oc2c(NC(=O)c3ccc(OCCCCc4ccccc4)cc3)cccc21 (stereo unspecified)		
490 nM	75 nM	11 ×10⁻⁶ cm/s	11 ×10⁻⁶ cm/s	< 0.1 ×10⁻⁶ cm/s													O=C(O)CCCOc1nc2cccc(/C=C/c3ccc(OCCCCOc4ccccc4)cc3)c2nc1C(=O)O		
250 nM	370 nM	13 ×10⁻⁶ cm/s	13 ×10⁻⁶ cm/s	12 ×10⁻⁶ cm/s													O=C(O)CCCn1cc(C(=O)O)c(=O)c2c(/C=C/c3ccc(OCCCCOc4ccccc4)cc3)cccc21		
22 nM	16 nM	0.06 ×10⁻⁶ cm/s															CS(=O)(=O)NC(=O)C1CN(CCCC(=O)O)c2cccc(NC(=O)c3ccc(OCCCCc4ccccc4)cc3)c2O1 (stereo unspecified)		
0.79 nM	0.49 nM	0.11 ×10⁻⁶ cm/s							7.8 mL/min/kg	4 h	2100 ng·h/mL	0.342 L/kg	40 ng/mL	11 h	700 ng·h/mL	1%	O=C(O)CCCN1CC(c2nnn[nH]2)Oc2c(NC(=O)c3ccc(OCCCCc4ccccc4)cc3)cccc21 (stereo unspecified)		
